# Measured values taken from ChEMBL document CHEMBL1201862, “PubChem BioAssay data set” (2004).
#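 Results reflect a 48-hour exposure of cells in 96-well plates to compound at five concentrations. The concentration for 50% growth inhibition is given as GI50.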 Active and inactive are the calls of the source. No stated cut-off is given here; in the data, active = GI50 up to about 1.1 µM and inactive = higher.
# Assays:
# Experiment in all cases: growth of human tumour cells (NCI), 48 h
# [1] = system: 786-0
# [2] = system: PC-3
# [3] = system: SNB-19
# [4] = system: MDA-MB-231
# [5] = system: A549
# [6] = system: SF-268
# [7] = system: HCT-15
# [8] = system: EKVX
# [9] = system: A498
# [10] = system: SK-MEL-2
# [11] = system: MDA-MB-435
# [12] = system: UO-31
# [13] = system: SF-539
# [14] = system: OVCAR-3
# [15] = system: Hs-578T
# [16] = system: TK-10
# [17] = system: UACC-257
# [18] = system: HT-29
# [19] = system: M14
# [20] = system: SK-MEL-5
# [21] = system: NCI/ADR-RES
# [22] = system: HL-60
# [23] = system: SK-MEL-28
# [24] = system: U-251
# [25] = system: NCI-H23
# [26] = system: NCI-H522
# [27] = system: SF-295
# [28] = system: HCT-116
# [29] = system: BT-549
# [30] = system: NCI-H460
# [31] = system: NCI-H226
# [32] = system: HOP-62
# [33] = system: MOLT-4
# [34] = system: SN12C
# [35] = system: IGROV-1
# [36] = system: SR
# [37] = system: ACHN
# [38] = system: CAKI-1
# [39] = system: K562
# [40] = system: SNB-75
# [41] = system: OVCAR-8
# [42] = system: OVCAR-4
# [43] = system: KM12
# [44] = system: UACC-62
# [45] = system: T47D
# [46] = system: SW-620
# [47] = system: LOX IMVI
# [48] = system: SK-OV-3
# [49] = system: RPMI-8226
# [50] = system: Malme-3M
# [51] = system: MCF7
# [52] = system: DU-145
# [53] = system: CCRF-CEM
# [54] = system: MDA-N
# [55] = system: COLO 205
# [56] = system: HOP-92
# [57] = system: RXF 393
# [58] = system: OVCAR-5
# [59] = system: HCC 2998
smiles,measurement,setting,value
COc1ccc(/C=C\c2cc(OC)c(OC)c(OC)c2)cc1OC(=O)CCC(=O)O,GI50,[1],0.000263 µM (active)
same,GI50,[2],< 0.0001 µM (active)
same,GI50,[3],< 0.0001 µM (active)
same,GI50,[4],< 0.0001 µM (active)
same,GI50,[5],0.000655 µM (active)
same,GI50,[6],< 0.0001 µM (active)
same,GI50,[7],< 0.0001 µM
same,GI50,[8],0.0149 µM (active)
same,GI50,[9],0.067 µM (active)
same,GI50,[10],0.0126 µM (active)
same,GI50,[11],< 0.0001 µM (active)
same,GI50,[12],1.34 µM (inactive)
same,GI50,[13],< 0.01 µM (active)
same,GI50,[14],< 0.0001 µM (active)
same,GI50,[15],< 0.01 µM (active)
same,GI50,[16],46.6 µM (inactive)
same,GI50,[17],> 10 µM (inactive)
same,GI50,[18],0.774 µM (active)
same,GI50,[19],< 0.0001 µM (active)
same,GI50,[20],0.1 µM (active)
same,GI50,[21],< 0.0001 µM (active)
same,GI50,[22],< 0.0001 µM (active)
same,GI50,[23],< 0.01 µM (active)
same,GI50,[24],< 0.0001 µM (active)
same,GI50,[25],0.0119 µM (active)
same,GI50,[26],< 0.0001 µM (active)
same,GI50,[27],0.000158 µM (active)
same,GI50,[28],< 0.0001 µM (active)
same,GI50,[29],25.8 µM (inactive)
same,GI50,[30],< 0.0001 µM (active)
same,GI50,[31],< 0.0001 µM (active)
same,GI50,[32],< 0.0001 µM (active)
same,GI50,[33],< 0.0001 µM (active)
same,GI50,[34],< 0.0001 µM (active)
same,GI50,[35],0.000145 µM (active)
same,GI50,[36],< 0.0001 µM (active)
same,GI50,[37],< 0.0001 µM (active)
same,GI50,[38],0.33 µM (active)
same,GI50,[39],< 0.0001 µM (active)
same,GI50,[40],43 µM (inactive)
same,GI50,[41],< 0.01 µM (active)
same,GI50,[42],36 µM (inactive)
same,GI50,[43],0.00043 µM (active)
same,GI50,[44],< 0.0001 µM (active)
same,GI50,[45],29.9 µM (inactive)
same,GI50,[46],< 0.0001 µM (active)
same,GI50,[47],< 0.0001 µM (active)
same,GI50,[48],0.000895 µM (active)
same,GI50,[49],< 0.0001 µM (active)
same,GI50,[50],< 0.0001 µM (active)
same,GI50,[51],< 0.01 µM (active)
same,GI50,[52],< 0.0001 µM (active)
same,GI50,[53],< 0.0001 µM (active)
same,GI50,[54],< 0.0001 µM (active)
same,GI50,[55],0.857 µM (active)
O=C(Oc1cccc(Cl)c1)c1cc2cc(CCl)ccc2oc1=O,GI50,[1],41.8 µM (inactive)
same,GI50,[2],26.1 µM (inactive)
same,GI50,[3],36.8 µM (inactive)
same,GI50,[4],> 100 µM (inactive)
same,GI50,[5],33 µM (inactive)
same,GI50,[6],80 µM (inactive)
same,GI50,[7],88.3 µM
same,GI50,[8],44.4 µM (inactive)
same,GI50,[10],12.6 µM (inactive)
same,GI50,[11],30.4 µM (inactive)
same,GI50,[12],32.8 µM (inactive)
same,GI50,[13],49.1 µM (inactive)
same,GI50,[14],39.8 µM (inactive)
same,GI50,[15],59.8 µM (inactive)
same,GI50,[16],32.1 µM (inactive)
same,GI50,[17],16.3 µM (inactive)
same,GI50,[18],30.5 µM (inactive)
same,GI50,[56],19.8 µM (inactive)
same,GI50,[19],14.6 µM (inactive)
same,GI50,[57],20.7 µM (inactive)
same,GI50,[20],16.9 µM (inactive)
same,GI50,[21],> 100 µM (inactive)
same,GI50,[22],19 µM (inactive)
same,GI50,[23],40 µM (inactive)
same,GI50,[25],59 µM (inactive)
same,GI50,[26],15.3 µM (inactive)
same,GI50,[27],71.1 µM (inactive)
same,GI50,[28],61.5 µM (inactive)
same,GI50,[29],> 100 µM (inactive)
same,GI50,[30],37.8 µM (inactive)
same,GI50,[58],> 100 µM (inactive)
same,GI50,[31],37.8 µM (inactive)
same,GI50,[32],42.9 µM (inactive)
same,GI50,[33],34.9 µM (inactive)
same,GI50,[34],48.9 µM (inactive)
same,GI50,[35],39.2 µM (inactive)
same,GI50,[36],63.8 µM (inactive)
same,GI50,[37],17.6 µM (inactive)
same,GI50,[38],60.7 µM (inactive)
same,GI50,[39],41.4 µM (inactive)
same,GI50,[40],31.4 µM (inactive)
same,GI50,[41],> 100 µM (inactive)
same,GI50,[42],41.5 µM (inactive)
same,GI50,[43],28.6 µM (inactive)
same,GI50,[44],14.3 µM (inactive)
same,GI50,[45],31.5 µM (inactive)
same,GI50,[46],> 100 µM (inactive)
same,GI50,[47],40.6 µM (inactive)
same,GI50,[48],> 100 µM (inactive)
same,GI50,[49],61.7 µM (inactive)
same,GI50,[50],14 µM (inactive)
same,GI50,[59],16 µM (inactive)
same,GI50,[51],30.3 µM (inactive)
same,GI50,[52],22.8 µM (inactive)
same,GI50,[54],24.5 µM (inactive)
same,GI50,[55],20.7 µM (inactive)
BrC1=CN2C[n+]3cc(Br)c4ccccc4c3N=C2c2ccccc21,GI50,[2],13.6 µM (inactive)
same,GI50,[3],6.67 µM (inactive)
same,GI50,[4],15 µM (inactive)
same,GI50,[5],46.3 µM (inactive)
same,GI50,[6],8.55 µM (inactive)
same,GI50,[7],58.6 µM
same,GI50,[9],24.9 µM (inactive)
same,GI50,[10],7.57 µM (inactive)
same,GI50,[11],6.18 µM (inactive)
same,GI50,[12],34.9 µM (inactive)
same,GI50,[13],11.7 µM (inactive)
same,GI50,[14],2.88 µM (inactive)
same,GI50,[15],22.1 µM (inactive)
same,GI50,[16],26.8 µM (inactive)
same,GI50,[17],22 µM (inactive)
same,GI50,[18],11.8 µM (inactive)
same,GI50,[56],10.5 µM (inactive)
same,GI50,[19],5.92 µM (inactive)
same,GI50,[20],3.34 µM (inactive)
same,GI50,[21],> 100 µM (inactive)
same,GI50,[22],22.5 µM (inactive)
same,GI50,[23],2.26 µM (inactive)
same,GI50,[24],4.54 µM (inactive)
same,GI50,[25],21.1 µM (inactive)
same,GI50,[26],12.3 µM (inactive)
same,GI50,[27],8.59 µM (inactive)
same,GI50,[29],16.9 µM (inactive)
same,GI50,[30],13.8 µM (inactive)
same,GI50,[58],17.9 µM (inactive)
same,GI50,[32],1.4 µM (inactive)
same,GI50,[33],11 µM (inactive)
same,GI50,[34],19.7 µM (inactive)
same,GI50,[35],7.05 µM (inactive)
same,GI50,[36],3.18 µM (inactive)
same,GI50,[37],14.8 µM (inactive)
same,GI50,[38],14 µM (inactive)
same,GI50,[39],6.34 µM (inactive)
same,GI50,[40],2.92 µM (inactive)
same,GI50,[41],16.7 µM (inactive)
same,GI50,[42],7.76 µM (inactive)
same,GI50,[43],3.65 µM (inactive)
same,GI50,[44],5.58 µM (inactive)
same,GI50,[45],4.14 µM (inactive)
same,GI50,[46],12.3 µM (inactive)
same,GI50,[47],12.4 µM (inactive)
same,GI50,[48],22 µM (inactive)
same,GI50,[49],10.8 µM (inactive)
same,GI50,[50],2.75 µM (inactive)
same,GI50,[51],4.42 µM (inactive)
same,GI50,[52],16.6 µM (inactive)
same,GI50,[53],10.7 µM (inactive)
same,GI50,[54],6.81 µM (inactive)
same,GI50,[55],10.3 µM (inactive)
